In brackets after ≈: the same amount, converted by molar mass. Counter-ions that a name gives are not always drawn. Like-named read-outs stand apart in the source and are kept apart here.
What was measured:
[1] = system: Bacillus subtilis PCI 219; experiment: minimum inhibitory concentration (MIC) by the agar dilution method, Bacillus subtilis PCI 219; assay type: cell-based; conditions: Brain heart infusion agar, 18 hrs after inoculation
Protocol: (§1) The minimum inhibitory concentration (MIC) of the FA-118O A, A1, B or B1 was determined by the agar dilution method, and the results are indicated in Table 5 below.
(§2) (1) Medium: Brain heart infusion agar
(§3) (2) Determined: 18 hrs after inoculation

Escherichia coli W3110 = experiment: minimum inhibitory concentration (MIC) by the agar dilution method, Escherichia coli W3110; assay type: cell-based; conditions: Brain heart infusion agar, 18 hrs after inoculation
Protocol: as §1, §2, §3

[2] = system: Klebsiella pneumoniae IFO 3512; experiment: minimum inhibitory concentration (MIC) by the agar dilution method, Klebsiella pneumoniae IFO 3512; assay type: cell-based; conditions: 18 hrs after inoculation
Protocol: as §1, §2, §3

Candida albicans = experiment: minimum inhibitory concentration (MIC) by the agar dilution method, Candida albicans; assay type: cell-based; conditions: Brain heart infusion agar, 18 hrs after inoculation
Protocol: as §1, §2, §3

[3] = system: Serratia marcescens IFO 12648; experiment: minimum inhibitory concentration (MIC) by the agar dilution method, Serratia marcescens IFO 12648; assay type: cell-based; conditions: 18 hrs after inoculation
Protocol: as §1, §2, §3

Bacillus subtilis 45 T = experiment: minimum inhibitory concentration (MIC) by the agar dilution method, Bacillus subtilis 45 T; assay type: cell-based; conditions: Brain heart infusion agar, 18 hrs after inoculation
Protocol: as §1, §2, §3

[4] = system: Staphylococcus aureus 209 P; experiment: minimum inhibitory concentration (MIC) by the agar dilution method, Staphylococcus aureus 209 P; assay type: cell-based; conditions: Brain heart infusion agar, 18 hrs after inoculation
Protocol: as §1, §2, §3

Staphylococcus aureus = experiment: minimum inhibitory concentration (MIC) by the agar dilution method, Staphylococcus aureus; assay type: cell-based; conditions: Brain heart infusion agar, 18 hrs after inoculation
Protocol: as §1, §2, §3

Escherichia coli P3478 = experiment: minimum inhibitory concentration (MIC) by the agar dilution method, Escherichia coli P3478; assay type: cell-based; conditions: Brain heart infusion agar, 18 hrs after inoculation
Protocol: as §1, §2, §3

tumor = experiment: antitumor activity (summary statement); conditions: summary in words
Protocol: (§4) The test was conducted in accordance with the method described in Cancer Chemotherapy Reports, Part 3, Vol. 3, No. 2, p. 9, September 1972. Mice inoculated intraperitoneally with 1×10^6 cells of P-388 were administered with the test compounds daily on days 1 to 5. The activity (T/C) of the test compounds is represented by the ratio of the median survival time of the treated group to that of the control group.
(§5) The tumor cell suspension was prepared from cells taken from ascites of rats to which 1×10^6 cells of Yoshida rat sarcoma had been inoculated before 3 to 5 days. The ascites was diluted with a medium which was constituted from 80 to 90% (v/v) Fischer's solution containing 20 to 10% (v/v) desensitized horse serum. One half milliliter of the cell suspension containing 5~20×10^4 cells thus prepared was placed in a small test tube. A substance to be tested was dissolved and diluted with the same medium and 0.5 ml of the diluted solution was added to the cell suspension. To the control tube was added 0.5 ml of the medium. 2 to 5 tubes were used for each experimental units. They were incubated statically at 37° C. for 2 to 3 days. After the incubation, growth was measured by observing the quantity of precipitated cells on the bottom of the test tube with the naked eyes. Growth inhibitory effect of a substance was expressed by the concentration pointing 50 percent growth of the control growth.

Pseudomonas aeruginosa H = experiment: minimum inhibitory concentration (MIC) by the agar dilution method, Pseudomonas aeruginosa H; assay type: cell-based; conditions: Brain heart infusion agar, 18 hrs after inoculation
Protocol: as §1, §2, §3

Bacillus subtilis 17 A = experiment: minimum inhibitory concentration (MIC) by the agar dilution method, Bacillus subtilis 17 A; assay type: cell-based; conditions: Brain heart infusion agar, 18 hrs after inoculation
Protocol: as §1, §2, §3

Gram-positive bacteria = experiment: ability to inhibit the growth of Gram-positive bacteria (summary statement); assay type: cell-based; conditions: summary in words
Protocol: as §1

P-388 Mice Leukemia = experiment: therapeutic effect against P-388 Mice Leukemia; assay type: in vivo; conditions: daily on days 1 to 5, 1×10^6 P-388 cells intraperitoneally
Protocol: as §4

[5] = system: Salmonella typhimurium IFO 12529; experiment: minimum inhibitory concentration (MIC) by the agar dilution method, Salmonella typhimurium IFO 12529; assay type: cell-based; conditions: Brain heart infusion agar, 18 hrs after inoculation
Protocol: as §1, §2, §3

Escherichia coli NIHJ = experiment: minimum inhibitory concentration (MIC) by the agar dilution method, Escherichia coli NIHJ; assay type: cell-based; conditions: Brain heart infusion agar, 18 hrs after inoculation
Protocol: as §1, §2, §3

Solubility = assay type: physicochemical
Yoshida rat sarcoma = experiment: growth inhibitory effect on Yoshida rat sarcoma cells; assay type: cell-based; conditions: for IC50: Rattus norvegicus, YOSHIDA, read-out: Growth Inhibitory Effect IC50
Protocol: as §5
IC50 : The concentration pointing 50% growth of the control growth.

Bacillus cereus IAM 1729 = experiment: minimum inhibitory concentration (MIC) by the agar dilution method, Bacillus cereus IAM 1729; assay type: cell-based; conditions: IAM1729, Brain heart infusion agar, 18 hrs after inoculation
Protocol: as §1, §2, §3

[6] = Bacillus subtilis, PCI219, 18 h, read-out: MIC
[7] = IFO3512, Brain heart infusion agar, read-out: MIC
[8] = IFO12648, Brain heart infusion agar, read-out: MIC
[9] = Salmonella enterica, read-out: MIC
[10] = concentration pointing 50% growth of the control growth, 37° C., 2 to 3 days, Fischer's solution with horse serum

SMILES	MIC [1, 6] [µg/mL]	MIC (Escherichia coli W3110; read-out: MIC) [µg/mL]	MIC [2, 7] [µg/mL]	MIC (Candida albicans; read-out: MIC) [µg/mL]	MIC [3, 8] [µg/mL]	MIC (Bacillus subtilis 45 T; read-out: MIC) [µg/mL]	MIC ([4]; read-out: MIC) [µg/mL]	MIC (Staphylococcus aureus; read-out: MIC) [µg/mL]	MIC (Escherichia coli P3478; read-out: MIC) [µg/mL]	antitumor activity (tumor)	MIC (Pseudomonas aeruginosa H; read-out: MIC) [µg/mL]	MIC (Bacillus subtilis 17 A; read-out: MIC) [µg/mL]	ability to inhibit the growth of Gram-positive bacteria (Gram-positive bacteria)	Activity (T/C), ratio of median survival time of treated group to control group (P-388 Mice Leukemia; 0.25 mg/kg/day) [%]	Activity (T/C), ratio of median survival time of treated group to control group (P-388 Mice Leukemia; 0.5 mg/kg/day) [%]	Activity (T/C), ratio of median survival time of treated group to control group (P-388 Mice Leukemia; 1.0 mg/kg/day) [%]	MIC [5, 9] [µg/mL]	MIC (Escherichia coli NIHJ; read-out: MIC) [µg/mL]	Solubility in chloroform (Solubility)	Growth Inhibitory Effect IC50 (Yoshida rat sarcoma; [10])	also measured
CC(O)CC(OC(C)CO)OC1C(N)CC(OC2CC(O)(C(C)O)Cc3c(O)c4c(c(O)c32)C(=O)c2c(O)cccc2C4=O)OC1C (centres unmarked) [FA-1180 B]	6.25 (≈ 9.45 µM)	> 100	> 100	> 100	> 100	0.4 (≈ 0.605 µM)	50 (≈ 75.6 µM)	50 (≈ 75.6 µM)	> 100	antitumor activity	> 100	12.5 (≈ 18.9 µM)	strong ability to inhibit the growth of Gram-positive bacteria	143	162	190	> 100	> 100	soluble	–	Solubility in methanol (Solubility): freely soluble; Solubility in n-hexane (Solubility): slightly soluble; IC50 (Yoshida rat sarcoma; [10]): 0.01 µg/mL (≈ 0.0151 µM); MIC (Bacillus cereus IAM 1729): 25 µg/mL (≈ 37.8 µM)
O=c1[nH]cc(F)c(=O)[nH]1 [5-FU, reference compound]	–	–	–	–	–	–	–	–	–	–	–	–	–	–	–	–	–	–	–	–	Activity (T/C), ratio of median survival time of treated group to control group (P-388 Mice Leukemia; 20 mg/kg/day): 198%
COc1cccc2c1C(=O)c1c(O)c3c(c(O)c1C2=O)C[C@@](O)(C(=O)CO)C[C@@H]3O[C@H]1C[C@H](N)[C@H](O)[C@H](C)O1 [Adriamycin hydrochloride, reference compound]	–	–	–	–	–	–	–	–	–	–	–	–	–	–	–	–	–	–	–	–	IC50 (Yoshida rat sarcoma): 0.01 µg/mL
CC(O)CC(OC(C)CO)OC1C(N)CC(OC2CC(O)(C(C)O)Cc3c(O)c4c(c(O)c32)C(=O)c2c(O)cccc2C4=O)OC1C (centres unmarked) [FA-1180 B1]	–	–	–	–	–	–	–	–	–	antitumor activity	–	–	strong ability to inhibit the growth of Gram-positive bacteria	151	168	179	–	–	–	10^-2 μg/ml	MIC [1]: 3.125 ppm; MIC (Escherichia coli W3110): > 100 ppm; MIC ([2]; Brain heart infusion agar): > 100 ppm; MIC (Candida albicans): > 100 ppm; MIC ([3]; Brain heart infusion agar): > 100 ppm; MIC (Bacillus subtilis 45 T): 0.4 ppm; MIC [4]: 50 ppm; MIC (Staphylococcus aureus): 50 ppm; MIC (Escherichia coli P3478): > 100 ppm; MIC (Pseudomonas aeruginosa H): > 100 ppm; MIC (Bacillus subtilis 17 A): 12.5 ppm; MIC [5]: > 100 ppm; MIC (Escherichia coli NIHJ): > 100 ppm
CC(=O)C1(O)Cc2c(O)c3c(c(O)c2C(OC2CC(N)C(OC(CC(C)O)OC(C)CO)C(C)O2)C1)C(=O)c1c(O)cccc1C3=O (centres unmarked) [FA-1180 A1]	–	–	–	–	–	–	–	–	–	antitumor activity	–	–	strong ability to inhibit the growth of Gram-positive bacteria	–	–	–	–	–	–	10^-3 μg/ml	MIC [1]: 1.56 ppm; MIC (Escherichia coli W3110): > 100 ppm; MIC ([2]; Brain heart infusion agar): > 100 ppm; MIC (Candida albicans): > 100 ppm; MIC ([3]; Brain heart infusion agar): > 100 ppm; MIC (Bacillus subtilis 45 T): < 0.2 ppm; MIC [4]: 12.5 ppm; MIC (Staphylococcus aureus): 12.5 ppm; MIC (Escherichia coli P3478): > 100 ppm; MIC (Pseudomonas aeruginosa H): > 100 ppm; MIC (Bacillus subtilis 17 A): 1.56 ppm; MIC [5]: > 100 ppm; MIC (Escherichia coli NIHJ): > 100 ppm
CC(=O)C1(O)Cc2c(O)c3c(c(O)c2C(OC2CC(N)C(OC(CC(C)O)OC(C)CO)C(C)O2)C1)C(=O)c1c(O)cccc1C3=O (centres unmarked) [FA-1180 A]	1.56 (≈ 2.36 µM)	> 100	> 100	> 100	> 100	< 0.2	12.5 (≈ 18.9 µM)	12.5 (≈ 18.9 µM)	> 100	antitumor activity	> 100	1.56 (≈ 2.36 µM)	strong ability to inhibit the growth of Gram-positive bacteria	148	167	205	> 100	> 100	soluble	10^-2 μg/ml	Solubility in methanol (Solubility): freely soluble; Solubility in n-hexane (Solubility): slightly soluble; MIC (Bacillus cereus IAM 1729): 3.12 µg/mL (≈ 4.74 µM)

Source: patent US4387218A, “Anthracycline antibiotics FA-1180 B and B1, or salts thereof” (priority 1979, dated 1983)
